GI50 and TGI data for 8 compounds are collected here from PubChem BioAssay (NCI).

Among the test systems are SK-MEL-5 melanoma; MALME-3M melanoma; NCI-H23 lung; SF-539 CNS; SR leukemia; SK-MEL-2 melanoma; PC-3 prostate; SK-MEL-28 melanoma; HCT-116 colon; HS 578T breast.
Common to all, as to experiment: inhibition of tumour cell growth, NCI panel, 48 h

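Step 1: Grow cells in 96-well plates. Step 2: Expose to compound for 48 hours at 5 concentrations. Step 3: Interpolate endpoints linearly; if unreached, use highest concentration. Here, GI50 denotes the concentration required for 50% inhibition of growth. TGI is the concentration that stops growth completely.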

Regarding `COc1ccc(/C=C\c2cc(OC)c(OC)c(OC)c2)cc1N/C=C\C(=O)c1c[nH]c2ccccc12`, the GI50 is less than 0.01 µM in the assay on SK-MEL-5 melanoma; 5 µM with MALME-3M melanoma; less than 0.01 µM in the assay on NCI-H23 lung; less than 0.01 µM with SF-539 CNS; less than 0.01 µM in the assay with SR leukemia; less than 0.01 µM with SK-MEL-2 melanoma. For the same compound, the GI50 was less than 0.01 µM with PC-3 prostate, 1.59 µM with SK-MEL-28 melanoma, less than 0.01 µM in the assay with HCT-116 colon and less than 0.01 µM with HS 578T breast. Also, the TGI with SK-MEL-5 melanoma is 0.0201 µM; with MALME-3M melanoma, 57.2 µM; in the assay on NCI-H23 lung it was greater than 100 µM; with SF-539 CNS, less than 0.01 µM; in the assay on SR leukemia it was greater than 100 µM; in the assay on SK-MEL-2 melanoma it was 20.3 µM. The TGI was greater than 100 µM in the assay with PC-3 prostate, greater than 100 µM in the assay on SK-MEL-28 melanoma, 10.4 µM in the assay on HCT-116 colon and greater than 100 µM in the assay on HS 578T breast.

As to `Cc1cc(O)cc(-c2nn(C)cc2-c2cc(N3CCOCC3)nc(-c3cccnc3)n2)c1`, the GI50 in the assay on SK-MEL-5 melanoma was 1.76 µM; in the assay with MALME-3M melanoma, 11.6 µM; in the assay with NCI-H23 lung, 5.31 µM; with SF-539 CNS it was 1.88 µM; in the assay with SR leukemia, 1.22 µM; in the assay on SK-MEL-2 melanoma, 6.28 µM. The GI50 in the assay with PC-3 prostate is 2.44 µM; in the assay on SK-MEL-28 melanoma it was 3.8 µM; with HCT-116 colon, 3.06 µM; in the assay on HS 578T breast, 2.04 µM. The TGI in the assay on SK-MEL-5 melanoma is 6.89 µM; in the assay on MALME-3M melanoma, 40.3 µM; in the assay with NCI-H23 lung it was 60.3 µM; in the assay on SF-539 CNS, 4.8 µM; with SR leukemia, greater than 100 µM; in the assay on SK-MEL-2 melanoma it was 31.1 µM. The TGI was 17.2 µM with PC-3 prostate, 21.1 µM with SK-MEL-28 melanoma, greater than 100 µM in the assay on HCT-116 colon and 9.06 µM with HS 578T breast.

As for `O=C1c2ccccc2-c2c1c1ccc3ccccc3c1n2-c1ccccc1`, the GI50 in the assay with SK-MEL-5 melanoma was 16.5 µM; in the assay with MALME-3M melanoma it was 28.1 µM; in the assay with NCI-H23 lung it was 56.8 µM; with SF-539 CNS, 18.2 µM; in the assay on SR leukemia, 41.9 µM; with SK-MEL-2 melanoma it was greater than 100 µM. Further, the GI50 with PC-3 prostate was 35.7 µM; with SK-MEL-28 melanoma, greater than 100 µM; with HS 578T breast, 18 µM. Also, the TGI in the assay with SK-MEL-5 melanoma is 50.1 µM; with MALME-3M melanoma, 66.2 µM; with NCI-H23 lung, greater than 100 µM; in the assay with SF-539 CNS it was 36.3 µM; in the assay with SR leukemia, greater than 100 µM; in the assay with SK-MEL-2 melanoma, greater than 100 µM. Further, the TGI is greater than 100 µM in the assay with PC-3 prostate, greater than 100 µM with SK-MEL-28 melanoma and 39.2 µM with HS 578T breast.

Regarding `COc1ccccc1N1CCN(CC(O)Cn2c(=O)c3c(OC)nc(C)cc3c(=O)n2-c2ccccc2)CC1` (stereo unspecified), the GI50 is 46.2 µM with SK-MEL-5 melanoma; greater than 100 µM in the assay on MALME-3M melanoma; 59.1 µM in the assay with NCI-H23 lung; 32.6 µM in the assay with SF-539 CNS; greater than 100 µM in the assay on SR leukemia; 43.9 µM in the assay on SK-MEL-2 melanoma. In addition, the GI50 with PC-3 prostate is 43 µM; in the assay with SK-MEL-28 melanoma it was greater than 100 µM; in the assay with HCT-116 colon it was 67.3 µM; in the assay with HS 578T breast, 25.7 µM. For the same compound, the TGI in the assay on SK-MEL-5 melanoma, in the assay on MALME-3M melanoma, with NCI-H23 lung, with SF-539 CNS, in the assay with SR leukemia and in the assay on SK-MEL-2 melanoma was greater than 100 µM in each case. Moreover, the TGI with PC-3 prostate, in the assay on SK-MEL-28 melanoma, in the assay with HCT-116 colon and with HS 578T breast was greater than 100 µM throughout.

Consider `NC1=CC(=O)C(=O)c2ccccc21`, for which the GI50 in the assay with SK-MEL-5 melanoma was 14.7 µM; with MALME-3M melanoma it was 11 µM; with NCI-H23 lung, 13.2 µM; with SF-539 CNS it was 21.5 µM; in the assay on SR leukemia, 23.3 µM; in the assay on PC-3 prostate, 17.9 µM. For the same compound, the GI50 in the assay with SK-MEL-28 melanoma was 8.81 µM; with HCT-116 colon it was 12.7 µM; in the assay on HS 578T breast, 12.1 µM. Further, the TGI is 28 µM in the assay with SK-MEL-5 melanoma; 25.7 µM in the assay on MALME-3M melanoma; 34.6 µM with NCI-H23 lung; 40.9 µM in the assay with SF-539 CNS; greater than 100 µM with SR leukemia; 70.5 µM in the assay with PC-3 prostate. Besides, the TGI in the assay with SK-MEL-28 melanoma came to 22.3 µM; in the assay on HCT-116 colon, 28 µM; in the assay with HS 578T breast it was 40.6 µM.

On to `O=CCC(O)C(O)C(O)CO` (stereo unspecified), for which the GI50 in the assay with SK-MEL-5 melanoma, in the assay with MALME-3M melanoma, in the assay on NCI-H23 lung, with SR leukemia, in the assay with SK-MEL-2 melanoma and with PC-3 prostate was greater than 100 µM throughout. Also, the GI50 in the assay on SK-MEL-28 melanoma, with HCT-116 colon and in the assay with HS 578T breast was greater than 100 µM throughout. The TGI in the assay with SK-MEL-5 melanoma, in the assay on MALME-3M melanoma, in the assay with NCI-H23 lung, in the assay with SR leukemia, in the assay with SK-MEL-2 melanoma and in the assay on PC-3 prostate was greater than 100 µM in each case. Besides, the TGI with SK-MEL-28 melanoma, with HCT-116 colon and with HS 578T breast was greater than 100 µM in each case.

As to `O=C1c2ccccc2-c2c1c1ccc([N+](=O)[O-])cc1c(=O)n2CCN1CCOCC1`, the GI50 with SK-MEL-5 melanoma is greater than 100 µM; in the assay with MALME-3M melanoma, greater than 100 µM; in the assay with NCI-H23 lung, greater than 100 µM; in the assay on SR leukemia, 15.5 µM; with SK-MEL-2 melanoma, greater than 100 µM; with PC-3 prostate, greater than 100 µM. The GI50 in the assay on SK-MEL-28 melanoma, in the assay on HCT-116 colon and in the assay with HS 578T breast was greater than 100 µM each time. The TGI in the assay on SK-MEL-5 melanoma, in the assay on MALME-3M melanoma, in the assay with NCI-H23 lung, in the assay with SR leukemia, in the assay on SK-MEL-2 melanoma and in the assay on PC-3 prostate was greater than 100 µM in each case. Also, the TGI in the assay on SK-MEL-28 melanoma, with HCT-116 colon and with HS 578T breast was greater than 100 µM each time.

Consider `CCOc1cc(CCNC)c2c(ccc3ccc(OC)c(O)c32)c1OC`, for which the TGI worked out at 26.1 µM with SK-MEL-5 melanoma; 20 µM in the assay with MALME-3M melanoma; 27.1 µM in the assay on NCI-H23 lung; 20.5 µM in the assay with SR leukemia; 34.2 µM in the assay with SK-MEL-2 melanoma; 27.6 µM with PC-3 prostate. Further, the TGI was 37.8 µM with SK-MEL-28 melanoma, 22.1 µM with HCT-116 colon and 45 µM with HS 578T breast.
